Assay results as given in patent publication US20230128137A1, “BENZO FIVE-MEMBERED CYCLIC COMPOUND” (MEDSHINE DISCOVERY INC., priority 2020, published 2023).

Legend:
RS4;11 cells = experiment: CTG (CellTiter-Glo) test of inhibition of RS4;11 cell proliferation; type: cell-based; conditions: Homo sapiens, 72 hours incubation
Experimental: 2.1 Experimental objectives: To obtain the IC50 value of the test compound in RS4;11 cell lines;
2.2 incubation time: 72 hours;
2.3 experimental method: CTG (Cell Titer-Glo™ Luminescent Cell Viability Assay);
a. when the cells were fused to 80%, the cells were collected and counted;
b. RS4; 11 cell suspension was diluted to 5000 cells/well and 20 uls of cell suspension was seeded in each well of 384-well plate;
c. the cell plates were placed back to 37° C. and incubated in a 5% carbon dioxide incubator for 24 hours;
d. the test compound was prepared into DMSO solution, and 5 μL of each was added to the designated well of the test plate, and the final concentration of DMSO solution was 0.5%;
e. initiation cell viability was detected by CTG;
f. the test plate was put back into the incubator and incubated for another 72 hours;
g. after 72 hours incubation, CellTiter-Glo™ luminescent cell viability assay was completed according to the manufacturer's manual;

Bcl-2 = molecular target: T1, Bcl-2 (Homo sapiens, UniProt P10415); experiment: HTRF competition test, Bcl-2 with FAM-BAK peptide (enzymology experiment); type: binding; conditions: 4 nM Bcl-2 and 100 nM FAM-BAK, read-out: IC50 (nM) for inhibition of Bcl-2 enzyme
T1 construct: Human recombinant Bcl-2 (amino acid 1-207); purchased Reaction Biology Corporation (RBC) APT-11-441; host or cells: E. coli
Experimental: (§1) This experiment was based on the competition between fluorescently-labeled Bak/Bad/Noxa peptides and GST-labeled Bcl family proteins. The fluorescence detection method based on HTRF was to observe the binding degree by using the fluorescence ratio between Tb-labeled anti-GST and FAM-labeled peptides. This peptide binds to the surface of the Bcl family protein pocket, which is essential for its anti-apoptotic function.
(§2) 1.1 Experimental reagents: analysis buffer: 20 mM potassium phosphate, pH 7.5, 50 mM sodium chloride, 1 mM EDTA, 0.005% Tritonx-100 and 1% DMSO.
(§3) 1.2 Probe: 5,6-FAM-peptide
(§4) 1.4 Experimental Conditions:
4 nM Bcl-2 and 100 nM FAM-BAK
(§5) a) The Bcl enzyme reaction solution was prepared in the newly prepared analysis buffer;
(§6) b) the Bcl enzyme reaction solution was provided;
(§7) c) the compound was first prepared into a 100% dimethyl sulfoxide solution, and then the compound solution was mixed with the Bcl enzyme reaction solution using (Echo550; nanoliter range) technology, and co-incubated for 10 minutes;
(§8) d) the FAM peptide solution was added.
(§9) e) the mixed solution was gently stirred in dark and room temperature, and co-cultured for 10 minutes.
(§10) f) Anti-GST solution was added.
(§11) g) The mixed solution was gently stirred in dark and room temperature, and co-cultured for 1 hour.
(§12) h) The HTRF high-frequency fluorescence ratio was tested, and the IC50 values were calculated.

Bcl-xL = molecular target: T2, Bcl-xL (Homo sapiens, UniProt Q07817); experiment: HTRF competition test, Bcl-xL with FAM-Bad peptide (enzymology experiment); type: binding; conditions: 3 nM Bcl-xL and 40 nM FAM-Bad, read-out: IC50 (nM) for inhibition of Bcl-xL enzyme
T2 construct: Human recombinant Bcl-xL (amino acid 1-209); purchased Reaction Biology Corporation (RBC) APT-11-442; host or cells: E. coli
Experimental: as §1, §2, §3, §4
3 nM Bcl-xL and 40 nM FAM-Bad
as §5, §6, §7, §8, §9, §10, §11, §12

[1] = Liver microsome metabolic stability in vitro, human; type: in vitro ADME; conditions: human liver microsomes; for Remaining (T = 60 min): 60 min incubation
Experimental: (§13) 3.2 preparation of nicotinamide adenine dinucleotide phosphate cofactor solution: an appropriate amount of NADPH powder was weighed and diluted into 10 mM magnesium chloride solution (working solution concentration: 10 unit/mL; final concentration of reaction system: 1 unit/mL);
(§14) 3.3 preparation of liver microsomes: an appropriate concentration working solution of liver microsomes (human, SD rat, CD-1 mouse, beagle dog) was prepared in 100 mM potassium phosphate buffer;
(§15) 3.4 preparation of quenching solution: cold (4° C.) acetonitrile containing 200 ng/mL tolbutamide and 200 ng/mL labetalol as internal standard (IS) was used as quenching solution;
(§16) 3.5 experimental operation:
(§17) a. empty “incubation” plates T60 and NCF60 were preheated for 10 minutes;
(§18) b. the liver microsomes were diluted to 0.56 mg/mL with 100 mM phosphate buffer;
(§19) c. 445 μL of microsomal working solution (0.56 mg/mL) was transferred to the preheated “incubation” plates T60 and NCF60, and then the“incubation” plates T60 and NCF60 were preincubated for 10 min with continuous shaking at 37° C. 54 μL of liver microsomes were transferred to a blank plate, and 6 μL of NAPDH cofactor was added to the blank plate, and then 180 μL of quenching solution was added thereto;
(§20) e. for NCF60 plate, 50 μL of buffer was added thereto and the mixture was fully mixed for three times. Timing was started; the plate was shaken at 37° C. for 60 minutes;
(§21) f. in “quenching” plate TO, 180 μL of quenching solution and 6 μL of NAPDH cofactor were addded to make sure that the plate was cooled down to prevent evaporation;
(§22) g. for T60 plates, the mixture was fully mixed for three times, and 54 μL of mixture was immediately transferred to the “quenching” plate at the 0 min time point. 44 μL of NAPDH cofactor was then added to the culture plate (T60). Timing was started; the plate was shaken at 37° C. for 60 minutes;
(§23) h. at 5, 10, 20, 30 and 60 min, 180 μL of quenching solution was added to the “quenching” plate, and the mixture was mixed for one time, and 60 μL of sample was continuously transferred from the T60 plate to the “quenching” plate at each time point;
(§24) i. for NCF60: the mixture was mixed for one time, and 60 μL of sample was transferred from the NCF60 culture dish to the “quenching” plate containing quenching solution at 60 minutes time point;
(§25) j. all sampling plates were shaked for 10 minutes, then centrifuged at 4000 rpm for 20 minutes at 4° C.;
(§26) k. 60 μL of supernatant was transferred into 180 μL of HPLC water and stirred with a plate shaker for 10 min;
(§27) 1. before LC-MS/MS analysis, each bioanalysis plate was sealed and shaked for 10 minutes.

[2] = Liver microsome metabolic stability in vitro, SD rat; type: in vitro ADME; conditions: SD rat liver microsomes; for Remaining (T = 60 min): 60 min incubation
Experimental: as §13, §14, §15, §16, §17, §18, §19, §20, §21, §22, §23, §24, §25, §26, §27

[3] = Liver microsome metabolic stability in vitro, CD-1 mouse; type: in vitro ADME; conditions: CD-1 mouse liver microsomes; for Remaining (T = 60 min): 60 min incubation
Experimental: as §13, §14, §15, §16, §17, §18, §19, §20, §21, §22, §23, §24, §25, §26, §27

[4] = Liver microsome metabolic stability in vitro, beagle dog; type: in vitro ADME; conditions: beagle dog liver microsomes; for Remaining (T = 60 min): 60 min incubation
Experimental: as §13, §14, §15, §16, §17, §18, §19, §20, §21, §22, §23, §24, §25, §26, §27

T1 sequence (P10415 1-207): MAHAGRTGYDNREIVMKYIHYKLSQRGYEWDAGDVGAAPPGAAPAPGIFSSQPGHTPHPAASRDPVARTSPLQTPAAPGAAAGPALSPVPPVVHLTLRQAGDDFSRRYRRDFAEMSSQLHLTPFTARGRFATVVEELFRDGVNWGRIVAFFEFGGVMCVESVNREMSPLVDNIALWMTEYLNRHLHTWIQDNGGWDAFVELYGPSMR
T2 sequence (Q07817 1-209): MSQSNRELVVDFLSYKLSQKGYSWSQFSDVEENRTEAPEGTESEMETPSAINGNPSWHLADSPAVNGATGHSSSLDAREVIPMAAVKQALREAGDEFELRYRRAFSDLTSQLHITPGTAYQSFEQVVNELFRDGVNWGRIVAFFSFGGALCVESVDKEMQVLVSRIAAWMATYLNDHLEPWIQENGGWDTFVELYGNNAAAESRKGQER

CC1(C)CCC(CN2CCN(c3ccc(C(=O)NS(=O)(=O)c4cc([N+](=O)[O-])c(NCC5CCOCC5)c5[nH]ccc45)c(Oc4cnc5[nH]ccc5c4)c3)CC2)=C(c2ccc(Cl)cc2)C1 [Compound 1]
IC50 (RS4;11 cells): 1.4 nM

CC1(C)CCC(CN2CC=C(c3ccc(C(=O)NS(=O)(=O)c4cc([N+](=O)[O-])c(NCC5CCOCC5)c5[nH]cnc45)c(Oc4ccc5[nH]ccc5c4)c3)CC2)=C(c2ccc(Cl)cc2)C1 [Compound 5]
IC50 (Bcl-2): 2.6 nM | IC50 (Bcl-xL): 504 nM | IC50 (RS4;11 cells): 10.2 nM

Cn1cnc2c(NCC3CCOCC3)c([N+](=O)[O-])cc(S(=O)(=O)NC(=O)c3ccc(N4CCN(CC5=C(c6ccc(Cl)cc6)CC(C)(C)CC5)CC4)cc3Oc3cnc4[nH]ccc4c3)c21 [Compound 6]
IC50 (Bcl-2): 2.4 nM | IC50 (Bcl-xL): 173 nM | IC50 (RS4;11 cells): 4.6 nM

CC1(C)CCC(CN2CCN(c3ccc(C(=O)NS(=O)(=O)c4cc([N+](=O)[O-])c(NCC5COCCO5)c5[nH]cnc45)c(Oc4cnc5[nH]ccc5c4)c3)CC2)=C(c2ccc(Cl)cc2)C1 (centres unmarked) [Compound 7]
IC50 (RS4;11 cells): 6.8 nM

Cn1cnc2c(S(=O)(=O)NC(=O)c3ccc(N4CCN(CC5=C(c6ccc(Cl)cc6)CC(C)(C)CC5)CC4)cc3Oc3cnc4[nH]ccc4c3)cc([N+](=O)[O-])c(NCC3CCOCC3)c21 [Compound 8]
IC50 (Bcl-2): 1.3 nM | IC50 (Bcl-xL): 1110 nM | IC50 (RS4;11 cells): 6.5 nM

Cc1nc2c(S(=O)(=O)NC(=O)c3ccc(N4CCN(CC5=C(c6ccc(Cl)cc6)CC(C)(C)CC5)CC4)cc3Oc3cnc4[nH]ccc4c3)cc([N+](=O)[O-])c(NCC3CCOCC3)c2[nH]1 [Compound 9]
IC50 (Bcl-2): 3.6 nM | IC50 (Bcl-xL): 326 nM | IC50 (RS4;11 cells): 1.9 nM

O=C(O)Cc1ccccc1Nc1c(Cl)cccc1Cl [Diclofenac]
Remaining (T = 60 min) [1]: 0.0% | CLint scaled at 1 µM [2]: 174 mL/min/kg | T1/2 [2]: 14.4 min | Remaining (T = 60 min) [2]: 5.2% | half-life at 1 µM [3]: 63.5 min | Remaining (T = 60 min) [3]: 53.0% | CLint scaled at 1 µM [4]: < 13.8 mL/min/kg | half-life at 1 µM [4]: > 145 min | Remaining (T = 60 min) [4]: 101%

C[C@]12CC[C@H]3[C@@H](CCC4=CC(=O)CC[C@@]43C)[C@@H]1CC[C@@H]2O [Testosterone]
Remaining (T = 60 min) [1]: 5.7% | CLint scaled at 1 µM ([1]; human): 155 mL/min/kg | half-life at 1 µM ([1]; human): 8.9 min | CLint scaled at 1 µM [2]: 2180 mL/min/kg | T1/2 [2]: 1.1 min | Remaining (T = 60 min) [2]: 0.0% | CLint scaled at 1 µM [3]: 1370 mL/min/kg | T1/2 [3]: 4.0 min | Remaining (T = 60 min) [3]: 0.0% | CLint scaled at 1 µM [4]: 81 mL/min/kg | T1/2 [4]: 24.6 min | Remaining (T = 60 min) [4]: 19%
